Data on one compound can be found in article PMC6222871, “Suppression of Hepatitis C Virus Genome Replication and Particle Production by a Novel Diacylglycerol Acyltransferases Inhibitor” (Molecules : A Journal of Synthetic Chemistry and Natural …, 2018).

Like-named read-outs stand apart in the source and are kept apart here.

Details of data set [1]: method as in PMID 23141914. Particulars: cited from earlier work.
For data set [2], the system named is Huh7.5 cells. Briefly: visualization of intracellular LD by BODIPY in Huh7.5 cells. Type of data set: cell-based. Particulars: 8 μM, 72 h. As for the experimental part:
Huh7.5 cells were incubated in a 24-well plate on top of coverslip in the presence of either DMSO, 8 μM of 10j, or 20 μM of A922500 for 72 h. Then, Huh7.5 cells were fixed by using 4% paraformaldehyde for 15 min and stained with 0.001% BODIPY 493/503 D3922 (Invitrogen, Carlsbad, CA, USA) for 10 min. The coverslips were mounted onto slides using Prolong Gold anti-fade reagent with DAPI (Invitrogen, Carlsbad, CA, USA) Fluorescence were examined and captured by Nikon confocal laser scanning microscopic system. LD content was quantified using the ImageJ program.

Data set [3] has as its system HCVcc particles (JFH1-NS5A-GFP). Briefly: HCVcc infectivity and time-of-addition assay. It counts as cell-based, hepatitis C virus. The conditions noted are these: pre-treatment (−2 h), co-treatment (0 h), post-treatment (+2 h); dose-dependent.
Procedure: In order to test the effects of 10j on the early viral functions, such as the viral entry and uncoating of the viral genome, we performed the “time of addition” experiment by using the cell culture-derived infectious HCVcc particles (JFH1-NS5A-GFP) (Figure 4A).
The time-of-addition assay was conducted as previously reported [38]. Briefly, naïve Huh-7.5 cells were plated in 384-well plates and incubated with serially diluted 10j at specific time points during virus infection: pre-infection treatment; co-infection treatment; post-infection treatment. Afterwards, infected cells were incubated at 37 °C for 3 days in the presence of inhibitors. At 72 h post-infection, HCV infection rates and cytotoxicity were determined by the number of GFP positive cells and Hoechst 33,342 positive cell nuclei, a marker for cell viability, respectively, using fully automated confocal microscopy (Opera, PerkinElmer, Hamburg, Germany). The acquired images were analyzed by in-house developed software. Percentages of HCV inhibition were calculated using 1% DMSO-treated cells and 10 μM of sofosbuvir treated cells and were set to 0% and 100% inhibition, respectively. Experiments were conducted at least two-times independently and in triplicates.
In data set [4] the test system is HCV NS5A (Huh7.5-Bart79I, genotype 1b). In words: western blot of HCV NS5A protein in Huh7.5-Bart79I cells. Type of data set: cell-based, hepatitis C virus. As for the experimental part: Due to the tight coupling of viral genome replication to its protein expression, inhibition of viral RNA genome replication leads to a subsequent reduction of viral protein expression.
(A) Dose-dependent western blot analysis of Huh7.5-J6/JFH1 cells treated with increasing concentrations of 10j for 72 h by measuring protein expression levels of HCV NS3 relative to the β-actin. Daclatasvir, an NS5A inhibitor was used as a positive control. (B) Time-dependent western blot analysis of J6/JFH1 RNA-transfected Huh7.5 cells treated with 8 μM of 10j for increasing periods of time analyzed by measuring protein expression levels of HCV NS3 relative to the β-actin. (C,D) Same experiments were performed as in (A,B) to study effects of 10j on the expression levels of the NS5A protein of Huh7.5-Bart79I cells in a dose- as well as time-dependent manners.
Western blot analysis of Huh7.5-J6/JFH1 or Bart79I cells treated with 10j was conducted as previously described. Relative amounts of HNF4α proteins were quantified by using an HNF4α mouse monoclonal antibody (M04), clone 4E2 (Abnova) with the dilution of 1:1000.

For data set [5], the system named is HCV genotype 2a (Huh7.5-J6/JFH1). Briefly: HCV particle production: infectivity of supernatant on naive Huh7.5 cells by real-time RT-PCR. Particulars: for effect on HCV particle production: 10 μM; for EC50: Hepatitis C virus, read-out: EC50 on HCV particle production. Type of data set: cell-based, hepatitis C virus. A general note: Real-time PCR tracks product formation cycle by cycle.
Procedure: A922500, a commercially available DGAT-1-specific inhibitor was used as a positive control [10]. […] Therefore, we decided to examine effects of these twelve DGAT inhibitors on HCV particle production as well as RNA genome replication in parallel. For this purpose, we transfected Huh7.5 cells with in vitro-transcribed genotype 2a HCV RNAs (Huh7.5-J6/JFH1) [16] and treated them with each DGAT inhibitor for 6 and 72 h at 10 μM. HCV genome replication as well as host GAPDH RNA levels was quantitated by a real-time RT-PCR analysis. For assessment of HCV particle production, we harvested and filtered the supernatant from Huh7.5-J6/JFH1 cells treated with DGAT inhibitors and incubated the supernatant with naïve huh7.5 cells for 72 h. Then, infectivity was measured by a real-time RT-PCR analysis.
Huh7.5-J6/JFH-1 cells were seeded into 6-well plates at a density of 3 × 10^5 cells per well with DMEM containing 10% FBS. […] Total RNAs were extracted from treated cells and virus-containing media were harvested at each time point. Naïve Huh7.5 cells were infected with these virus-containing media after concentration with centricons.

Data set [6] deals with recombinant DGAT-1. Further details: method as in PMID 23242135. The conditions noted are these: recombinant DGAT-1, [14C] oleoyl-CoA as acyl-donor; cited from earlier work.
The test system of data set [7] is HNF4α. Briefly: HNF4α western blot in Huh7.5-J6/JFH1 cells. It counts as cell-based. Particulars: up to 10 μM, 72 h. The source says:
Since DGATs play an important role in maintaining liver-likeness in hepatocytes, the antiviral effect of 10j might be due to mere loss of this liver-specific character. […] In addition, HNF4α was also reported to be reduced in DGAT1-silenced cell lines. Therefore, we wished to test effects of 10j on HNF4α.
Background: Immunoblotting shows a protein as a band on a membrane.

Data set [8] relates to HCV IRES. In words: HCV IRES-dependent translation, dual luciferase reporter in Huh7.5 cells. It counts as cell-based, hepatitis C virus. Particulars: up to 10 μM. As for the experimental part: A dual luciferase reporter plasmid, which expresses firefly and renila luciferases through cap and HCV IRES-dependent translation, was transfected into Huh7.5 cells in the presence of 10j. Dual luciferase assay was conducted as previously described.
In general terms: In a reporter assay the amount or activity of a reporter protein is the signal.

For data set [9], the system named is HCV genotype 1b (Huh7.5-Bart79I). In words: HCV genome replication in sub-genomic replicon Huh7.5-Bart79I cells by real-time RT-PCR. As for the experimental part:
Quantitative real-time RT-PCR analysis to measure levels of HCV RNA and GAPDH was conducted as previously described. The cDNA synthesis and reverse transcription of miR-122 were performed by using Taqman quantitative RT-PCR (qRT-PCR) analysis. Taqmanq RT-PCR components including TaqMan miR122 probe, endogenous control U6 probe, TaqMan® MicroRNA reverse transcription Kit and TaqMan® universal master mix II were purchased from Thermo Fisher Scientific (Waltham, MA, USA)

A short description of data set [10]: MTT-based cell viability assay (EZ-CYTOX). The conditions noted are these: human. As for the experimental part: To order to study impacts of DGAT inhibitors on HCV genome replication independently of the particle production, we decided to examine effects of these twelve DGAT inhibitors on the levels of viral RNA genome and cell viability in parallel. […] Then, we treated them with an increasing concentration of each DGAT inhibitor. Then, luciferase and MTT-based cell viability assays were performed to determine EC50 and CC50 (cytotoxic concentration required to kill 50% of treated cells) values, respectively.
Cell viability was measured with EZ-CYTOX (10% tetrazolium salt; Dogen, Gyeonggi-do, Korea) as described previously. Anti-HCV replication analysis using a luciferase assay was conducted as previously described.

In data set [11] the test system is recombinant DGAT-2. Further details: method as in PMID 23242135. Particulars: cited from earlier work.
The subject of data set [12] is HepG2 cells. More on the design: method as in PMID 23242135. The conditions noted are these: [14C] glycerol as substrate; cited from earlier work.

Turning to `O=C(NCc1ccco1)c1ccc2[nH]c(COc3ccc(C45CC6CC(CC(C6)C4)C5)cc3)nc2c1` [10j, 2-{[4-(adamant-1yl)phenoxy]methyl)-N-(furan-2-ylmethyl)-1H-benzo[d]imidazole-5-carboxamide], the fat tissues result in data set [1] (mice fed with high-fat diet, versus control mice) is “significant decrease”. Besides, the high-density lipoprotein-cholesterol result in [1] (mice) is reported as “significant increase”. For the same compound, the “total TG, total cholesterol and low-density lipoprotein cholesterol in the blood” value in [1] (mice) is “decreased levels”. In [2], the “reduction in the level of LDs (BODIPY)” value turned out to be 49%. In addition, the “infection of Huh7.5 cells with HCVcc particles” value in data set [3] is “all abrogated”. The “time required for reducing 50% of HCV protein expression (T1/2)” value in data set [4] (10 μM of 10j, 8 μM (figure legend)) is listed as 37.4 h. Besides, the EC50 worked out at 4.1 µM in data set [4] (Hepatitis C virus, NS5A, read-out: concentration required for reducing 50% of HCV protein expression (EC50)); 1 µM in [5] (Huh7.5, 3 h); 1.7 µM in data set [5] (Huh7.5, 6 h); 0.4 µM in data set [5] (Huh7.5, 12 h); 0.4 µM in [5] (Huh7.5, 24 h); 0.7 µM in data set [5] (Huh7.5, 48 h). Besides, the EC50 in data set [5] (Huh7.5, 72 h) was determined as 0.2 µM; in data set [9] (Hepatitis C virus, 72 h, read-out: EC50 HCV RNA, subgenomic replicon), 3.3 µM. The “effect on HCV particle production” value in [5] (6 h (Figure 1B)) was “able to block HCV particle production”; in [5] (72 h (Figure 1D)) it was “able to block both viral RNA genome replication and particle production”. Further, the IC50 was 9 µM in data set [6] and 17.3 µM in data set [11]. In addition, the “expression levels of HNF4α” value in data set [7] is reported as “remained unaltered”. For the same compound, the “HCV IRES-dependent translation” value in data set [8] is “remained unaltered”. Further, the “T1/2, time required for reducing the viral RNAs by half” value in data set [9] (8 μM, genotype 1b) amounted to 19.2 h. The compound further yielded a CC50 in data set [10] of 38.9 µM. The “TG % (10 μM in HepG2), relative [14C] triglyceride percentage” value in data set [12] is 45.0%.

In general, IC50 refers to the point on the concentration scale where inhibition reaches its midpoint. For orientation: CC50 means the concentration at which the toxic effect on the cells reaches its halfway point. Low values mean greater toxicity to the cells, high ones lower toxicity to the cells.
